Results from patent US20120264799A1, “INDANE-AMINE DERIVATIVES, THEIR PREPARATION AND USE AS MEDICAMENTS” (LABORATORIOS DEL DR. ESTEVE ,S.A., priority 2009, published 2012).
pKi: −log10 of the molar value.

Target: T1, Cloned Human Serotonin Receptor, Subtype 7 (h5HT7) (Homo sapiens, UniProt P34969)
T1 construct: purchased PerkinElmer 6120512; host or cells: CHO cells
Assay: Radioligand binding assay, [125I]LSD, Flashplate
Conditions: h5HT7 expressed in CHO cells; radioligand [125I]LSD 0.82 nM; 240 min at room temperature; read-out: 5-HT7 Ki
Experimental: Radioligand binding assays were performed using the Cloned Human Serotonin Receptor, Subtype 7 (h5HT7), expressed in CHO cells, coated on Flashplate (Basic FlashPlate Cat.: SMP200) from PerkinElmer (Cat.: 6120512). The protocol assay was essentially the recommended protocol in the Technical Data Sheet by PerkinEmer Life and Analytical Sciences. The Mass membrane protein/well was typically […] and the Receptor/well was about 9-10 fmoles. The Flashplate were let equilibrate at room temperature for one hour before the addition of the components of the assay mixture. The binding buffer was: 50 mM Tris-HCl, pH 7.4, containing 10 mM MgCl2, 0.5 mM EDTA and 0.5% BSA. The radioligand was [^125l]LSD at a final concentration of 0.82 nM. Nonspecific binding was determined with 50 µM of Clozapine. The assay volume was […]. […] The radioactivity were quantified by liquid scintillation spectrophotometry (Wallac 1450 Microbeta Trilux) with a count delay of 4 minutes prior to counting and a counting time of 30 seconds per well. Competition binding data were analyzed by using the LIGAND program (Munson and Rodbard, LIGAND: A versatile, computerized approach for characterization of ligandbinding systems. Anal. Biochem. 107: 220-239, 1980) and assays were performed in triplicate determinations for each point.

T1 sequence (P34969 whole entry): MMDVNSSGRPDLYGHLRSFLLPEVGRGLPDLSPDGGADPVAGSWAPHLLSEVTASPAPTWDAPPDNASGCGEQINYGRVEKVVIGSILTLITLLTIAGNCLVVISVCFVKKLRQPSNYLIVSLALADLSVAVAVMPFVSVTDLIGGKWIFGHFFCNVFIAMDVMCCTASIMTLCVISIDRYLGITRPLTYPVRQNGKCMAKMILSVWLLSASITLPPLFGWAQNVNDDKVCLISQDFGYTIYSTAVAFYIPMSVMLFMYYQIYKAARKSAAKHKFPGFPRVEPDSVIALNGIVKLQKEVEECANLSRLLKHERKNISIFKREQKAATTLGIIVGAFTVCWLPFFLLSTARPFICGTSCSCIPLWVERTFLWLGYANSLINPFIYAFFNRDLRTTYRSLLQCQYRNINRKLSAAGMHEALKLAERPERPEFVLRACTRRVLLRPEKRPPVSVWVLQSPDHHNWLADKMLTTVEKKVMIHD

Row | Structure (SMILES) | pKi
1 | Cc1nn(C(C)C)c(-c2ccc3c(c2)C(N(C)C)CC3)c1C (centres unmarked) [Example 9, 6-(1-lsopropyl-3,4-dimethyl-1H-pyrazol-5-yl)-N,N-dimethyl-2,3-dihydro-1H-inden-1-amine] | 6.44
2 | Cc1nn(C)c(-c2ccc3c(c2)C(N(C)C)CC3)c1C (centres unmarked) [Example 3, N,N-dimethyl-6-(1,3,4-trimethyl-1H-pyrazol-5-yl)-2,3-dihydro-1H-inden-1-amine] | 6.37
